Measured values from ChEMBL document CHEMBL1201862, “PubChem BioAssay data set” (2004).
Calls of active or inactive are those of the source.

Legend:
[1] = target: Intestinal-type alkaline phosphatase (Mus musculus, UniProt P24822); assay: mouse intestinal alkaline phosphatase activators, dose response, biochemical, luminescence, uHTS hits (AID 488783); type: functional
[2] = target: T1, Zinc finger protein mex-5 (Caenorhabditis elegans, UniProt Q9XUB2); assay: potency of MEX-5 RNA-binding blockers – biochemical, C. elegans, fluorescence polarization, dose response (AID 1960)
T1 sequence (Q9XUB2 whole entry): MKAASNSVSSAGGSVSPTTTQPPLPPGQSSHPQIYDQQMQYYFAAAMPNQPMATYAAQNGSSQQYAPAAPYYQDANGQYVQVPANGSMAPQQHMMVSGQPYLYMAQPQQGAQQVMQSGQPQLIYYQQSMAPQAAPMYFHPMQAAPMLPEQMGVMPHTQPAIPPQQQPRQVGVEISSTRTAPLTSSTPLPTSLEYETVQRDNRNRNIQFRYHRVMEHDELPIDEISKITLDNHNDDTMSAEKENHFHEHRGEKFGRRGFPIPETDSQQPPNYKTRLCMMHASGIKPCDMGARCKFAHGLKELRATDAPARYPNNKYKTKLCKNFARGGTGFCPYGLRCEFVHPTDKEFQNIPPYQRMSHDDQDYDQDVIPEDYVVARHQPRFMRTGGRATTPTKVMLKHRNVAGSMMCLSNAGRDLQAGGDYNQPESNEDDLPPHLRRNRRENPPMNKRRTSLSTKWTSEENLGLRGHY

[3] = target: T2, Alkaline phosphatase, tissue-nonspecific isozyme (Homo sapiens, UniProt P05186); assay: activation of tissue-nonspecific alkaline phosphatase – biochemical, TNAP isozyme, mouse IAP uHTS hits, selectivity assay for mouse IAP activator project, dose response (AID 488880); type: functional
T2 sequence (P05186 whole entry): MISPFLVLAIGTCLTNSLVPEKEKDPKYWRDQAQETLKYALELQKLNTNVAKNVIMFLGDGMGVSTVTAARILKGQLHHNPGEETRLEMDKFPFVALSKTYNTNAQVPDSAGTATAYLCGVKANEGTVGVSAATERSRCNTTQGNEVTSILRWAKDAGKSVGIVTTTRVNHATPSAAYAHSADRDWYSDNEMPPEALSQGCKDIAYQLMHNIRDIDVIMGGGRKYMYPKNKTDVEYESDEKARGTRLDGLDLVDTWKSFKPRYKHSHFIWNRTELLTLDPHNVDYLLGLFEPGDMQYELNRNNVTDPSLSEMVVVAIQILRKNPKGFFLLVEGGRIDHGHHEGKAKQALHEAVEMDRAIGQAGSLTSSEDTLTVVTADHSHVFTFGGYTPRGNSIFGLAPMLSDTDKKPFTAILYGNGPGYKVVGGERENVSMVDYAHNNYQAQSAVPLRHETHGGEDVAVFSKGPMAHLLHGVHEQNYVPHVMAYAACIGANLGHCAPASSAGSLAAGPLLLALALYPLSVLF

[4] = target: T3, Rac GTPase-activating protein 1 (Homo sapiens, UniProt Q9H0H5); assay: blockers of MgcRacGAP-driven Rac1 GTP hydrolysis – biochemical, ADP Hunter fluorescence, primary and confirmatory, confirmation (AID 624330); type: functional
T3 sequence (Q9H0H5 whole entry): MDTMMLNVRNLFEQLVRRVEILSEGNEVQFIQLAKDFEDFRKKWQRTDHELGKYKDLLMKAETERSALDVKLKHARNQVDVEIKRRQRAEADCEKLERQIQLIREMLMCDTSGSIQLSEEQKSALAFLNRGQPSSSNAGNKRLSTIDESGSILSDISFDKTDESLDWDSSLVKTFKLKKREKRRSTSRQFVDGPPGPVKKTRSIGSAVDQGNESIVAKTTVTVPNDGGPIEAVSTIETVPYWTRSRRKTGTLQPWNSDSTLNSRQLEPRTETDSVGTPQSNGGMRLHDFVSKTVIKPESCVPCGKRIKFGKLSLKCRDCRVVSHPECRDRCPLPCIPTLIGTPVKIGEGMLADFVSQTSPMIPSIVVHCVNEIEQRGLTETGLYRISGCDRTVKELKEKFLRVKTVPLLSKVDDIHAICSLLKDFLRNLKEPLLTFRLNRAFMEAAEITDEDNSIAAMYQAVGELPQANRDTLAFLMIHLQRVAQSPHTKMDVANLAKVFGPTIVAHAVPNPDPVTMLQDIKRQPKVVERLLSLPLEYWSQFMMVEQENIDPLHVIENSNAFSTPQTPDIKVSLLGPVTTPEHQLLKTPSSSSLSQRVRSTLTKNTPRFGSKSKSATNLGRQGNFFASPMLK

[5] = target: Intestinal-type alkaline phosphatase (Homo sapiens, UniProt P09923); assay: activation of human intestinal alkaline phosphatase – biochemical, dose response (AID 488873); type: functional
[6] = target: T4, Heat shock factor protein 1 (Mus musculus, UniProt P38532); assay: enhancement of HSF1-driven luciferase signal – cell-based, NIH3T3, luminescence, dose retest, confirmation (AID 435004); type: functional;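 further: stress induced by proteasome inhibitor MG132 added 30 min after compound; luciferase reporter driven by HSF1 response element in NIH3T3 cells; actives raise luminescence as potentiators of the MG132 stress response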
T4 sequence (P38532 whole entry): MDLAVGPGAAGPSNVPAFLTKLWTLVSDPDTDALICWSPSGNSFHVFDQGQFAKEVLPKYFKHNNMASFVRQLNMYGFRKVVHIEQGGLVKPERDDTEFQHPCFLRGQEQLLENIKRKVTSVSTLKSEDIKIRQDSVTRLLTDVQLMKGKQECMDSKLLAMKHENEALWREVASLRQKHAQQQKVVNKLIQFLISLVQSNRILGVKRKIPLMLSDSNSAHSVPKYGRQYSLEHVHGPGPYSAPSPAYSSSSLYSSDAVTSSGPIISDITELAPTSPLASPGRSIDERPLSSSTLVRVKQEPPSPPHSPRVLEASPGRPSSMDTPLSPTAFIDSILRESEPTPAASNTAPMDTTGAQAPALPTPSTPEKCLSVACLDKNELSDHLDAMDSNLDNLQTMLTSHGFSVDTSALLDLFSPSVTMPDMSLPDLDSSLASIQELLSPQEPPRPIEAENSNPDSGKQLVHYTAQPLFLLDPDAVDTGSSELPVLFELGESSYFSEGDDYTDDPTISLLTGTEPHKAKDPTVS

[7] = target: T5, RNA-binding protein pos-1 (Caenorhabditis elegans, UniProt G5EF15); assay: disruptors of C. elegans POS-1 RNA interaction – biochemical, fluorescence polarization, dose response (AID 1964);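 further: purified POS-1 fused to maltose binding protein made in E. coli; potency of compounds blocking POS-1 binding to fluorescent RNA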
T5 sequence (G5EF15 whole entry): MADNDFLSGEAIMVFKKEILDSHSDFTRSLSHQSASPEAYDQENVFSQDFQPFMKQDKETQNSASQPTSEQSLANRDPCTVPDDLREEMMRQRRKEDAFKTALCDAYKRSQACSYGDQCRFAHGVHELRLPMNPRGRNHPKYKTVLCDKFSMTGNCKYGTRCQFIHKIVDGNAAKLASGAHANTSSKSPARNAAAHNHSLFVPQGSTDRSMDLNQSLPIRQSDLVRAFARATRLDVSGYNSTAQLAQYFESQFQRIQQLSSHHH

HEK293 = assay: SAR analysis of compounds that are cytotoxic to HEK293 - Set 3. [Related pubchem assays (depositor defined):AID1575, AID1578, AID1848, AID1849, AID2001, AID2333, AID2334, AID2335, AID2337, AID2469]; type: functional, cell-based; settings: Homo sapiens
Tumor necrosis factor = Tumor necrosis factor (Homo sapiens, UniProt P01375); assay: analog potency on TNFa NF-kB signaling – cell-based, set 3, SAR follow-up (AID 2801); type: functional
[8] = target: Nucleotide-binding oligomerization domain-containing protein 2 (Homo sapiens, UniProt Q9HC29); assay: inhibition of MDP-driven NOD2 NF-kB reporter – cell-based, set 3, SAR follow-up (AID 2799); type: functional
[9] = target: T6, Nucleotide-binding oligomerization domain-containing protein 1 (Homo sapiens, UniProt Q9Y239); assay: SAR analysis of compounds that inhibit NOD1 - Set 3. [Related pubchem assays (depositor defined):AID1566, AID1575, AID1578, AID1849, AID1852, AID2333, AID2335, AID2466]; type: functional
T6 sequence (Q9Y239 whole entry): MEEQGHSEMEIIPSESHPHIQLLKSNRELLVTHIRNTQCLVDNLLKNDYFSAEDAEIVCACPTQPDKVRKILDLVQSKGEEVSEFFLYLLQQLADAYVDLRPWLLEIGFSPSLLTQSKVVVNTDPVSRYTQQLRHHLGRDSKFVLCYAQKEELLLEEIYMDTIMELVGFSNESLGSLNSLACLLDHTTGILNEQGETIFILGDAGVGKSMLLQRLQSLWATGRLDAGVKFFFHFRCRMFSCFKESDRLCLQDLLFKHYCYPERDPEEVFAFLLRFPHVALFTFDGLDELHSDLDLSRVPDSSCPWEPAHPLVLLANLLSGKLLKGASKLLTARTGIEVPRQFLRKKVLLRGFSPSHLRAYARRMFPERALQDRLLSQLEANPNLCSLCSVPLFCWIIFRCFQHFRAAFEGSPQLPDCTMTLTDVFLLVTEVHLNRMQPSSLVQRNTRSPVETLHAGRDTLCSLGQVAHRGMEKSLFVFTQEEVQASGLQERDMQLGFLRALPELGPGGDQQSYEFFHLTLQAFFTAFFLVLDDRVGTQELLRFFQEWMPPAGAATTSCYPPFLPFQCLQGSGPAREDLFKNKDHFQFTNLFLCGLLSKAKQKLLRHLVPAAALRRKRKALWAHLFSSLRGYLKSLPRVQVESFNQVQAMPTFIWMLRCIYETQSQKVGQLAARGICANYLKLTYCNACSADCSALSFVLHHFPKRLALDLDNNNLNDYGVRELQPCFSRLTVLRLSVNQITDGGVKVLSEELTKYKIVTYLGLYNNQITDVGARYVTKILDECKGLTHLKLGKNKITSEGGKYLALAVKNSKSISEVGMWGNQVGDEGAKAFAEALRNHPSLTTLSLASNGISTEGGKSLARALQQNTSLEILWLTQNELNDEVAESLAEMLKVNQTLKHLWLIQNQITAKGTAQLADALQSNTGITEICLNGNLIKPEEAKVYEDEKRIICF

[10] = target: T7, Kappa-type opioid receptor (Homo sapiens, UniProt P41145); assay: SAR analysis of Antagonists of the Kappa Opioid Receptor (KOR) using an Image-Based Assay - Set 2. [Related pubchem assays (depositor defined):AID1777, AID1785, AID1786, AID1966, AID2133, AID2136, AID2284, AID2285, AID2348]; type: functional
[11] = target: T8, Delta-type opioid receptor (Homo sapiens, UniProt P41143); assay: SAR Analysis of Antagonists of the DOR Receptor using an Image-Based Assay - Set 2. [Related pubchem assays (depositor defined):AID1777, AID1785, AID1786, AID1966, AID2133, AID2136, AID2284, AID2285, AID2357]; type: functional
[12] = target: T8, Delta-type opioid receptor; assay: SAR Analysis of Agonists of the DOR Receptor using an Image-Based Assay - Set 2. [Related pubchem assays (depositor defined):AID1777, AID1785, AID1786, AID1966, AID2133, AID2136, AID2284, AID2285, AID2370]; type: functional
Mu-type opioid receptor [13] = target: T9, Mu-type opioid receptor (Homo sapiens, UniProt P35372); assay: SAR Analysis of Antagonists of the MOR Receptor using an Image-Based Assay - Set 2. [Related pubchem assays (depositor defined):AID1777, AID1785, AID1786, AID1966, AID2133, AID2136, AID2284, AID2285, AID2420]; type: functional
[14] = target: T7, Kappa-type opioid receptor; assay: SAR analysis of small molecule agonists of the kappa opioid receptor via a luminescent beta-arrestin assay - Set 2. [Related pubchem assays (depositor defined):AID1777, AID1785, AID1786, AID1966, AID2133, AID2136, AID2284, AID449737]; type: functional
[15] = target: T7, Kappa-type opioid receptor; assay: SAR analysis of Agonists of the Kappa Opioid Receptor (KOR) using an Image-Based Assay - Set 2. [Related pubchem assays (depositor defined):AID1777, AID1786, AID1966, AID2133, AID2136, AID2284, AID2285, AID2359]; type: functional
Mu-type opioid receptor [16] = target: T9, Mu-type opioid receptor; assay: SAR Analysis of Agonists of the MOR Receptor using an Image-Based Assay - Set 2. [Related pubchem assays (depositor defined):AID1777, AID1785, AID1786, AID1966, AID2133, AID2136, AID2284, AID2285, AID2352]; type: functional
BJ [17] = assay: BJ-TERT fibroblast viability loss – cell-based, RAS-independent, luminescence, dose response (AID 1933); type: functional; settings: Homo sapiens
BJ [18] = assay: BJ-TERT-LT-ST fibroblast viability loss – cell-based, RAS-independent, luminescence, dose response (AID 1935); type: functional; settings: Homo sapiens;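 further: BJ fibroblasts immortalized with TERT plus LT and ST oncogenes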
[19] = Counterscreen for AddAB inhibitors: absorbance-based bacterial cell-based high throughput dose response assay for inhibitors of bacterial viability. [Related pubchem assays (depositor defined):AID435030, AID449728, AID449731, AID488942, AID488955, AID488956]; type: functional
Vero = assay: cells; type: functional; settings: Chlorocebus sabaeus
Exodeoxyribonuclease V = Exodeoxyribonuclease V (Escherichia coli (strain K12), UniProt P04993+P07648+P08394); assay: RecBCD inhibition via phage-restricted bacterial growth – absorbance, V66 E. coli, mutant T4 phage, counter-screen for AddAB inhibitor project, dose response (AID 492957); type: functional, cell-based, Escherichia coli str. K-12 substr. MG1655
[20] = DRD fibroblast viability loss – cell-based, non-viral oncogenic, luminescence, dose response (AID 1934); type: functional; settings: Homo sapiens

T7 sequence (P41145 whole entry): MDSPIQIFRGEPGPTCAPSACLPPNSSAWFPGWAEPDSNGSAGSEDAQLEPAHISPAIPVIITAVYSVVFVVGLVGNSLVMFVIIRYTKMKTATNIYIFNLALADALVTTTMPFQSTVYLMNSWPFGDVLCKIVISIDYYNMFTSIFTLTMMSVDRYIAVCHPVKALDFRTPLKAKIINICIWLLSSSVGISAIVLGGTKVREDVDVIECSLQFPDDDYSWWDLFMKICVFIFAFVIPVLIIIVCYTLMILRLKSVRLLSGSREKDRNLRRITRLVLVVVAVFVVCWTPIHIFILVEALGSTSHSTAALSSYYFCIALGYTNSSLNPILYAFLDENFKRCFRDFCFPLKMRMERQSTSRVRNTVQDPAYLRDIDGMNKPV
T8 sequence (P41143 whole entry): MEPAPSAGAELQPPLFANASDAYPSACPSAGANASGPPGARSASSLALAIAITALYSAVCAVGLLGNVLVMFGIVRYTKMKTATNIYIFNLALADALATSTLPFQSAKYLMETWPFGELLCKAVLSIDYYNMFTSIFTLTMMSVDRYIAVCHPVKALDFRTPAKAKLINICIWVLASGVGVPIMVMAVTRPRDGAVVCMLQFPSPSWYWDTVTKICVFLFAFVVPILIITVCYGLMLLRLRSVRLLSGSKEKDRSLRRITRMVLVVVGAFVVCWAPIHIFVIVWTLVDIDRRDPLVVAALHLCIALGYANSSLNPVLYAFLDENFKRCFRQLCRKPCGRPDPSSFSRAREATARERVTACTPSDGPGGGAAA
T9 sequence (P35372 whole entry): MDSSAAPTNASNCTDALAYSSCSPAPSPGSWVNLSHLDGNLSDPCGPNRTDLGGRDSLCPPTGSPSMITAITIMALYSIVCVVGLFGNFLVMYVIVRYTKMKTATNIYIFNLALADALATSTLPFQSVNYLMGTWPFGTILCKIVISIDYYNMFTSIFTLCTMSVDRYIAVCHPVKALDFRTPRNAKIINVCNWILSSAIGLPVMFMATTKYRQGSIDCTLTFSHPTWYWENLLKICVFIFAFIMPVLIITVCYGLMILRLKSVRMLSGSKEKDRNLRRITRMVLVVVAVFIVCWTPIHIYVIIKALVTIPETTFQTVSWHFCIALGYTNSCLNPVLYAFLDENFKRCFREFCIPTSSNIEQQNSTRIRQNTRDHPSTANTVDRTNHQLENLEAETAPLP
Chain of Intestinal-type alkaline phosphatase (Homo sapiens, UniProt P09923) (P09923 whole entry): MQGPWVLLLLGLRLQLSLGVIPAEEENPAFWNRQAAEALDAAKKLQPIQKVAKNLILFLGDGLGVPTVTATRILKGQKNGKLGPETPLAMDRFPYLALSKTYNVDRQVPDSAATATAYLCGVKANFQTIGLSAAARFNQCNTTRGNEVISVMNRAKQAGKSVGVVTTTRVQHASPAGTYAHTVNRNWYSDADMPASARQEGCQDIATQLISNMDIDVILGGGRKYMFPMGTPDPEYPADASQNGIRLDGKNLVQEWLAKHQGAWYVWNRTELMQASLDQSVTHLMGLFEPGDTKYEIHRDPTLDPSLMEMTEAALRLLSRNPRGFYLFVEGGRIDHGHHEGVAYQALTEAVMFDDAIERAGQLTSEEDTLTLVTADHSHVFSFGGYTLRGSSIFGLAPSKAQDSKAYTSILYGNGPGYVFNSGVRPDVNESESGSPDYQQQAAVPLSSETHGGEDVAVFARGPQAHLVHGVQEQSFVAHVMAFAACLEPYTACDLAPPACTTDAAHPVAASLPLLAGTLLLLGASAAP
Chain of Nucleotide-binding oligomerization domain-containing protein 2 (Q9HC29 whole entry, the tested form may be a part): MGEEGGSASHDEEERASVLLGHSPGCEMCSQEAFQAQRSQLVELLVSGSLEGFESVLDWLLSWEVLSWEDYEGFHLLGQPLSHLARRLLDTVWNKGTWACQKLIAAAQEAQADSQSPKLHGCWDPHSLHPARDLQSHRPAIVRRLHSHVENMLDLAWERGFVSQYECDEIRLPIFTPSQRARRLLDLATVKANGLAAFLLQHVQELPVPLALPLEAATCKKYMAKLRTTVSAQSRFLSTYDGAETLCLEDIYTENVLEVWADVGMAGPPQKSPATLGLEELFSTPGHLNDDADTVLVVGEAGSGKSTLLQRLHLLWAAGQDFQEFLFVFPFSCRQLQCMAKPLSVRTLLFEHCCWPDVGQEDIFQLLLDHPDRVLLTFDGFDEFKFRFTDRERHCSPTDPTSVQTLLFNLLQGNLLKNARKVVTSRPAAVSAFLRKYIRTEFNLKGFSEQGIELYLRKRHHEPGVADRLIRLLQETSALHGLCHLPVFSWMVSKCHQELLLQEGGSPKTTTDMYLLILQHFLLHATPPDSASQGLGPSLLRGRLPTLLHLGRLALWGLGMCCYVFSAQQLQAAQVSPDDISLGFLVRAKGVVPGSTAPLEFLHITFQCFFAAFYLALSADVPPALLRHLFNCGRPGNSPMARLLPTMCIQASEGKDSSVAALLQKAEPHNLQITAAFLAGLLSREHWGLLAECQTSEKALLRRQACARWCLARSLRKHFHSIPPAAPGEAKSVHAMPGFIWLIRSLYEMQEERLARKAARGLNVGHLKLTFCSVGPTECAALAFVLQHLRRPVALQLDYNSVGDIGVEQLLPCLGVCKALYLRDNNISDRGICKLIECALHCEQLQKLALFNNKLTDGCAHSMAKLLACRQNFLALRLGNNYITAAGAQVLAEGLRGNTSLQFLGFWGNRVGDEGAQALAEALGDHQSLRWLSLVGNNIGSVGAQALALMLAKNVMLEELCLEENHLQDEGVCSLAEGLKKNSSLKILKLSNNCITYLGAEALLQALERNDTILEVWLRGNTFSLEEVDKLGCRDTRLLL
Chain of Intestinal-type alkaline phosphatase (Mus musculus, UniProt P24822) (P24822 whole entry): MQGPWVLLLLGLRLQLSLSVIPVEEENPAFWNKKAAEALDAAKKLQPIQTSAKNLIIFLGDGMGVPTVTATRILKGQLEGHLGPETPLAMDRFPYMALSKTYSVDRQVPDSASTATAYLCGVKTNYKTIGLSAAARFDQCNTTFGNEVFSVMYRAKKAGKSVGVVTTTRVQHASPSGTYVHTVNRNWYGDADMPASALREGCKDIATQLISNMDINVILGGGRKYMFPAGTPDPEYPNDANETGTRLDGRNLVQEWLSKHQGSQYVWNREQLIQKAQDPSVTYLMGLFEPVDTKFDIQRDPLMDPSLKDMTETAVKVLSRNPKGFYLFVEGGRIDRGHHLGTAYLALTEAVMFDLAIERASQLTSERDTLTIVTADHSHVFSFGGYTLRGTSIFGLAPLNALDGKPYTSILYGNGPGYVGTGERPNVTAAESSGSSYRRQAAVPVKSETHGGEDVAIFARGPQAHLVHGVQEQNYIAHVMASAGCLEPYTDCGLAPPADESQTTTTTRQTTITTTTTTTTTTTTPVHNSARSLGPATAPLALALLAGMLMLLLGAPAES
Chain of Tumor necrosis factor (P01375 whole entry, the tested form may be a part): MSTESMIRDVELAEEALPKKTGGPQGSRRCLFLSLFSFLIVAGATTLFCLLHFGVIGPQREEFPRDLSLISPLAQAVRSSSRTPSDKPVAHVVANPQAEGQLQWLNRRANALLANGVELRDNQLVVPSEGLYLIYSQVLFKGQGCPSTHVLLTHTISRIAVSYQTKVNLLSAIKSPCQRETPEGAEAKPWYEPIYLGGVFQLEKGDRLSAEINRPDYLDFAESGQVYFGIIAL

## Cc1cc(O)nc(N/N=C/c2ccc(O)c(O)c2)n1
[1]
  EC50: 58.7 µM (active)
[2]
  EC50: 125 µM (active)
[3]
  EC50: 56.1 µM (active)
[4]
  IC50: 21.4 µM (active)
[5]
  EC50: 66.2 µM (active)
[6]
  EC50: > 260 µM (inactive)
[7]
  EC50: 99.3 µM (active)

## COc1ccc(-c2cc(N)n(S(=O)(=O)c3cccc([N+](=O)[O-])c3)n2)cc1OC
HEK293
  IC50: > 20 µM (inactive)
Tumor necrosis factor
  IC50: > 20 µM (inactive)
[8]
  IC50: > 20 µM (inactive)
[9]
  IC50: > 20 µM (inactive)

## Brc1ccc(CSc2nnc(-c3ccccn3)n2Cc2cccs2)cc1
[10]
  IC50: > 32 µM (inactive)
[11]
  IC50: > 32 µM (inactive)
[12]
  EC50: > 32 µM (inactive)
Mu-type opioid receptor [13]
  IC50: > 32 µM (inactive)
[14]
  EC50: 1.85 µM (active)
[15]
  EC50: 1.1 µM (active)
Mu-type opioid receptor [16]
  EC50: > 32 µM (inactive)

## O=Nc1ccc(O)c2ncccc12
BJ [17]
  EC50: 12.9 µM (active)
BJ [18]
  EC50: 8.73 µM (active)
[19]
  IC50: 35.6 µM (inactive)
Vero
  CC50: 9.69 µM (active)
Exodeoxyribonuclease V
  IC50: > 119 µM (inactive)
[20]
  EC50: 8.56 µM (active)
